In this test the test system is L1210 leukemia ip in BDF1 mice, survival T/C. Put plainly: NCI In Vivo Anticancer Drug Screen. Data for tumor model L1210 Leukemia (intraperitoneal) in B6D2F1 (BDF1) mice. To be noted: endpoint: mean survival time, higher = longer survival. The method in brief: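 Ratio derived from survival: compound-dosed mice over vehicle-dosed mice, all bearing a transplantable tumor.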

Where [1] appears, read: dose: 100.0 mg/kg/injection, schedule: Q01DX009 (ip), vehicle: saline.
The mark [2] stands for this setting: dose: 100.0 mg/kg/injection, schedule: Q04DX002 (ip), vehicle: Klucel (hydroxypropylcellulose) (HPC).
Setting [3] is: dose: 200.0 mg/kg/injection, schedule: Q04DX002 (ip), vehicle: Klucel (hydroxypropylcellulose) (HPC).
The mark [4] stands for this setting: dose: 400.0 mg/kg/injection, schedule: Q04DX002 (ip), vehicle: Klucel (hydroxypropylcellulose) (HPC).
The mark [5] stands for this setting: dose: 200.0 mg/kg/injection, schedule: Q01DX001 (ip), vehicle: saline.
The mark [6] stands for this setting: dose: 400.0 mg/kg/injection, schedule: Q01DX001 (ip), vehicle: saline.

Several values for one entry are separate records, joined by “and”; a condition that tells them apart may be missing. Identical values can stand only once. Inconclusive results and toxic doses are left out.

As to `CC12CCCC(O)(CC(=O)C1)C2` (centres undefined), the T/C by setting is: under setting [1], 93 % of control; (dose: 100.0 mg/kg/injection, schedule: Q04DX003 (ip), vehicle: acetone) 95 % of control; (dose: 200.0 mg/kg/injection, schedule: Q01DX009 (ip), vehicle: saline) 95 % of control; (dose: 200.0 mg/kg/injection, schedule: Q04DX003 (ip), vehicle: acetone) 101 % of control; (dose: 400.0 mg/kg/injection, schedule: Q01DX009 (ip), vehicle: saline) 91 % of control; (dose: 400.0 mg/kg/injection, schedule: Q04DX003 (ip), vehicle: acetone) 98 % of control.
For the molecule `O=C1Nc2cccc3c2N(CCC3)C2=C1CCC2`, the T/C under setting [2] is 105 % of control, the T/C under setting [3] was 105 % of control and the T/C under setting [4] is 108 % of control.
For `CC(C)(C)OC(=O)C(c1ccccc1)c1ccccc1`, the T/C is, setting by setting: (dose: 50.0 mg/kg/injection, schedule: Q01DX001 (ip), vehicle: saline) 106 % of control; (dose: 100.0 mg/kg/injection, schedule: Q01DX001 (ip), vehicle: saline) 89 % of control; under setting [5], 106 % of control; under setting [6], 89 % of control.
Turning to `COc1cccc(C2N(Cc3ccccc3OC)CCCN2Cc2ccccc2OC)c1`, the T/C reads like this: (dose: 50.0 mg/kg/injection, schedule: Q01DX001 (ip), vehicle: carboxymethylcellulose (CMC)) 93 % of control; (dose: 100.0 mg/kg/injection, schedule: Q01DX001 (ip), vehicle: carboxymethylcellulose (CMC)) 102 % of control; (dose: 200.0 mg/kg/injection, schedule: Q01DX001 (ip), vehicle: carboxymethylcellulose (CMC)) 106 % of control; (dose: 400.0 mg/kg/injection, schedule: Q01DX001 (ip), vehicle: carboxymethylcellulose (CMC)) 102 % of control.
As for `CC1(C2CCN(Cc3ccccc3)CC2)OCCO1`, the T/C is 100 % of control (dose: 37.5 mg/kg/injection, schedule: Q04DX003 (ip), vehicle: saline); 100 % of control (dose: 75.0 mg/kg/injection, schedule: Q04DX003 (ip), vehicle: saline); 101 % of control (dose: 150.0 mg/kg/injection, schedule: Q04DX003 (ip), vehicle: saline).
Take `COC(=O)C1C=C2c3cccc4[nH]cc(c34)CC2N(C#N)C1` (centres undefined): the T/C (dose: 25.0 mg/kg/injection, schedule: Q04DX003 (ip), vehicle: alcohol) was 91 % of control; the T/C (dose: 50.0 mg/kg/injection, schedule: Q04DX003 (ip), vehicle: alcohol) was 100 % of control; the T/C (dose: 100.0 mg/kg/injection, schedule: Q04DX003 (ip), vehicle: alcohol) is 96 % of control; the T/C (dose: 200.0 mg/kg/injection, schedule: Q04DX003 (ip), vehicle: alcohol) is 93 % of control; the T/C (dose: 400.0 mg/kg/injection, schedule: Q04DX003 (ip), vehicle: alcohol) is 94 % of control.
In the case of `C=C(Br)CN(C)C`, the T/C is, setting by setting: (dose: 50.0 mg/kg/injection, schedule: Q01DX009 (ip), vehicle: saline with Tween-80) 117 % of control; (dose: 100.0 mg/kg/injection, schedule: Q04DX003 (ip), vehicle: saline with Tween-80) 96 % of control; (dose: 200.0 mg/kg/injection, schedule: Q04DX003 (ip), vehicle: saline with Tween-80) 102 % of control.
In the case of `O=C(Nc1ccccc1F)N(CCO)C1CCCCC1`, the T/C is 101 % of control (dose: 100.0 mg/kg/injection, schedule: Q01DX009 (ip), vehicle: Klucel (hydroxypropylcellulose) (HPC)); 106 % of control (dose: 200.0 mg/kg/injection, schedule: Q01DX009 (ip), vehicle: Klucel (hydroxypropylcellulose) (HPC)); 101 % of control (dose: 400.0 mg/kg/injection, schedule: Q01DX009 (ip), vehicle: Klucel (hydroxypropylcellulose) (HPC)).
For the molecule `COc1cc(C=O)cc(O)c1O`, the T/C by setting is: (dose: 62.5 mg/kg/injection, schedule: Q01DX Z (ip), vehicle: saline) 96 % of control; (dose: 500.0 mg/kg/injection, schedule: Q01DX Z (ip), vehicle: saline) 124 % of control.
With `CC(=O)Nc1cc(Cl)c([N+](=O)[O-])cc1C`, the T/C is, setting by setting: under setting [2], 110 % of control; under setting [3], 113 % of control; under setting [4], 103 % of control.
For `O=C(Nc1ccc(NC(=O)Nc2cccc(C3=NCCN3)c2)cc1)Nc1ccc(C2=NCCN2)cc1`, the T/C was 88 % of control (dose: 1.0 mg/kg/injection, schedule: Q01DX Z (ip), vehicle: carboxymethylcellulose (CMC)); 102 % of control (dose: 2.0 mg/kg/injection, schedule: Q01DX Z (ip), vehicle: carboxymethylcellulose (CMC)); 95 % of control (dose: 4.0 mg/kg/injection, schedule: Q01DX Z (ip), vehicle: carboxymethylcellulose (CMC)); 107 % of control (dose: 8.0 mg/kg/injection, schedule: Q01DX Z (ip), vehicle: carboxymethylcellulose (CMC)); 108 % of control (dose: 14.0 mg/kg/injection, schedule: Q01DX Z (oral), vehicle: carboxymethylcellulose (CMC)); 202 % of control (dose: 18.0 mg/kg/injection, schedule: Q01DX Z (ip), vehicle: carboxymethylcellulose (CMC)). The T/C reads like this: (dose: 21.0 mg/kg/injection, schedule: Q01DX Z (oral), vehicle: carboxymethylcellulose (CMC)) 109 % of control; (dose: 32.0 mg/kg/injection, schedule: Q01DX Z (oral), vehicle: carboxymethylcellulose (CMC)) 103 % of control; (dose: 36.0 mg/kg/injection, schedule: Q01DX Z (ip), vehicle: carboxymethylcellulose (CMC)) 116 % of control; (dose: 48.0 mg/kg/injection, schedule: Q01DX Z (oral), vehicle: carboxymethylcellulose (CMC)) 103 % of control; (dose: 62.0 mg/kg/injection, schedule: Q01DX Z (ip), vehicle: saline) 164 % of control; (dose: 72.0 mg/kg/injection, schedule: Q01DX Z (oral), vehicle: carboxymethylcellulose (CMC)) 122 % of control. For the setting “dose: 125.0 mg/kg/injection, schedule: Q01DX Z (ip), vehicle: saline”, the T/C was 91 % of control.
In the case of `CCN(CC)CCOc1ccc(OC)cc1`, the T/C is 91 % of control (dose: 25.0 mg/kg/injection, schedule: Q04DX003 (ip), vehicle: saline); 102 % of control (dose: 50.0 mg/kg/injection, schedule: Q01DX009 (ip), vehicle: saline); 115 % of control (dose: 50.0 mg/kg/injection, schedule: Q04DX003 (ip), vehicle: saline); 111 % of control under setting [1]; 104 % of control and 121 % of control (dose: 100.0 mg/kg/injection, schedule: Q04DX003 (ip), vehicle: saline).
As to `O=C(Cc1c[nH]c2ccccc12)N/N=C\c1c[nH]c2ccccc12`, the T/C under setting [5] was 97 % of control and the T/C under setting [6] is 92 % of control.
With `CN=C(N)Nc1ccc(C(=O)O)cc1`, the T/C (dose: 100.0 mg/kg/injection, schedule: Q01DX009 (ip), vehicle: water) is 102 % of control; the T/C (dose: 100.0 mg/kg/injection, schedule: Q04DX003 (ip), vehicle: water) is 106 % of control; the T/C (dose: 200.0 mg/kg/injection, schedule: Q01DX009 (ip), vehicle: water) was 107 % of control; the T/C (dose: 200.0 mg/kg/injection, schedule: Q04DX003 (ip), vehicle: water) is 89 % of control; the T/C (dose: 400.0 mg/kg/injection, schedule: Q01DX009 (ip), vehicle: water) is 106 % of control; the T/C (dose: 400.0 mg/kg/injection, schedule: Q04DX003 (ip), vehicle: water) was 91 % of control.
With `CCCCCCCCCCCCSC1=CC(=O)C=CC1=O`, the T/C by setting is: (dose: 5.0 mg/kg/injection, schedule: Q01DX001 (ip), vehicle: saline) 101 % of control; (dose: 10.0 mg/kg/injection, schedule: Q01DX001 (ip), vehicle: saline) 108 % of control; (dose: 20.0 mg/kg/injection, schedule: Q01DX001 (ip), vehicle: saline) 97 % of control; (dose: 40.0 mg/kg/injection, schedule: Q01DX001 (ip), vehicle: saline) 112 % of control; (dose: 80.0 mg/kg/injection, schedule: Q01DX001 (ip), vehicle: saline) 112 % of control.
Turning to `CC(CNCCN)C[Si](C)(C)C` (centres undefined), the T/C is 101 % of control (dose: 4.0 mg/kg/injection, schedule: Q01DX015 (ip), vehicle: saline); 101 % of control (dose: 6.25 mg/kg/injection, schedule: Q04DX003 (ip), vehicle: saline sonified); 96 % of control (dose: 8.0 mg/kg/injection, schedule: Q01DX015 (ip), vehicle: saline); 97 % of control (dose: 12.5 mg/kg/injection, schedule: Q04DX003 (ip), vehicle: saline sonified); 102 % of control (dose: 16.0 mg/kg/injection, schedule: Q01DX015 (ip), vehicle: saline); 97 % of control (dose: 25.0 mg/kg/injection, schedule: Q04DX003 (ip), vehicle: saline sonified). Besides, for the setting “dose: 32.0 mg/kg/injection, schedule: Q01DX015 (ip), vehicle: saline”, the T/C is 96 % of control.

The record behind these values is PubChem BioAssay AID248 (DTP/NCI, 2004).
